Legend:
[1] = system: Monochoria vaginalis, Presl.; assay: Preemergence weed control under flooded paddy conditions, MOOVA (Monochoria); assay type: in vivo; details: preemergence, flooded paddy, rated three to four weeks after treatment; also: meaning of each grade not given here
[2] = system: Cyperus iria; assay: Preemergence weed control under flooded paddy conditions, CYPIR (Rice Flatsedge); assay type: in vivo; details: preemergence, flooded paddy, rated three to four weeks after treatment; also: meaning of each grade not given here
[3] = system: Echinochloa oryzoides (Ard.) Fritsch.; assay: Preemergence weed control under flooded paddy conditions, ECHORC (Watergrass (Calif.)); assay type: in vivo; details: preemergence, flooded paddy, rated three to four weeks after treatment; also: meaning of each grade not given here
[4] = system: Sagittaria pygmaea, L.; assay: Preemergence weed control under flooded paddy conditions, SAGPY (Arrowhead (Pygmaea)); assay type: in vivo; details: preemergence, flooded paddy, rated three to four weeks after treatment; also: meaning of each grade not given here
[5] = system: Cyperus serotinus, Rottb.; assay: Preemergence weed control under flooded paddy conditions, CYPSE (Flatsedge); assay type: in vivo; details: preemergence, rated three to four weeks after treatment; also: meaning of each grade not given here
[6] = system: Oryza sativa, (L.) Tebonnet; assay: Rice tolerance to post-transplant applications under flooded paddy conditions (Example 187), ORYSAT (Rice, Tebonnet); details: rated three to four weeks after treatment

Structure (SMILES)	herbicidal effect rating, MOOVA ([1]; 0.0313 kg/ha)	herbicidal effect rating, MOOVA ([1]; 0.0625 kg/ha)	herbicidal effect rating, MOOVA ([1]; 0.1250 kg/ha)	herbicidal effect rating, MOOVA ([1]; 0.2500 kg/ha)	herbicidal effect rating, CYPIR ([2]; 0.0313 kg/ha)	herbicidal effect rating, CYPIR ([2]; 0.0625 kg/ha)	herbicidal effect rating, CYPIR ([2]; 0.1250 kg/ha)	herbicidal effect rating, CYPIR ([2]; 0.2500 kg/ha)	herbicidal effect rating, ECHORC ([3]; 0.0313 kg/ha)	herbicidal effect rating, ECHORC ([3]; 0.0625 kg/ha)	herbicidal effect rating, ECHORC ([3]; 0.1250 kg/ha)	herbicidal effect rating, ECHORC ([3]; 0.2500 kg/ha)	herbicidal effect rating, SAGPY ([4]; 0.0313 kg/ha)	herbicidal effect rating, SAGPY ([4]; 0.0625 kg/ha)	herbicidal effect rating, SAGPY ([4]; 0.1250 kg/ha)	herbicidal effect rating, SAGPY ([4]; 0.2500 kg/ha)	herbicidal effect rating, CYPSE ([5]; 0.0313 kg/ha)	herbicidal effect rating, CYPSE ([5]; 0.0625 kg/ha)	herbicidal effect rating, CYPSE ([5]; 0.2500 kg/ha)	herbicidal effect rating, ORYSAT (rice tolerance) ([6]; 0.0313 kg/ha)	other results
Cc1ccc(OCC(=O)OC(C)(C)C)c(-c2nsc3ccc(-n4c(=O)cc(C(F)(F)F)n(C)c4=O)cc23)c1 [Example 68, tert -Butyl {{2-{5-[3,6-dihydro-3-methyl-2,6-dioxo-4-(trifluoromethyl)-1(2H)-pyrimidinyl]-1,2-benzisothiazol-3-yl}-p-tolyl}oxy}acetate]	9.0	9.0	9.0	9.0	7.0	9.0	9.0	9.0	7.5	9.0	9.0	9.0	0.0	0.0	2.0	2.0	6.0	7.0	7.0	0.5	herbicidal effect rating, ORYSAT (rice tolerance) ([6]; 0.0625 kg/ha): 1.0; herbicidal effect rating, ORYSAT (rice tolerance) ([6]; 0.1250 kg/ha): 1.5; herbicidal effect rating, ORYSAT (rice tolerance) ([6]; 0.2500 kg/ha): 1.0
C=CCOC(=O)COc1ccc(C)cc1-c1nsc2ccc(-n3c(=O)cc(C(F)(F)F)n(C)c3=O)cc12 [Example 69, Allyl {{2-{5-[3,6-dihydro-3-methyl-2,6-dioxo-4-(trifluoromethyl)-1(2H)-pyrimidinyl]-1,2-benzisothiazol-3-yl}-p-tolyl}oxy}acetate]	9.0	9.0	9.0	9.0	0.0	2.0	4.0	7.0	9.0	9.0	9.0	9.0	0.0	0.0	2.0	9.0	0.0	0.0	9.0	3.5	herbicidal effect rating, CYPSE ([5]; 0.1250 kg/ha): 2.0; herbicidal effect rating, ORYSAT (rice tolerance) ([6]; 0.0625 kg/ha): 5.0; herbicidal effect rating, ORYSAT (rice tolerance) ([6]; 0.1250 kg/ha): 6.5; herbicidal effect rating, ORYSAT (rice tolerance) ([6]; 0.2500 kg/ha): 8.0
Cc1ccc(OCC(=O)OCCN(C)C)c(-c2nsc3ccc(-n4c(=O)cc(C(F)(F)F)n(C)c4=O)cc23)c1 [Example 70, 2-(Dimethylamino)ethyl {{2-{5-[3,6-dihydro-3-methyl-2,6-dioxo-4-(trifluoromethyl)-1(2H)-pyrimidinyl]-1,2-benzisothiazol-3-yl}-p-tolyl}oxy}acetate]	9.0	9.0	9.0	9.0	2.0	7.0	9.0	9.0	4.0	8.0	9.0	9.0	0.0	0.0	1.0	2.0	0.0	0.0	0.0	3.0	herbicidal effect rating, CYPSE ([5]; 0.1250 kg/ha): 0.0; herbicidal effect rating, ORYSAT (rice tolerance) ([6]; 0.0625 kg/ha): 4.5; herbicidal effect rating, ORYSAT (rice tolerance) ([6]; 0.1250 kg/ha): 6.0; herbicidal effect rating, ORYSAT (rice tolerance) ([6]; 0.2500 kg/ha): 6.5
Cc1ccc(OCC(=O)OCCCl)c(-c2nsc3ccc(-n4c(=O)cc(C(F)(F)F)n(C)c4=O)cc23)c1 [Example 71, 2-Chloroethyl {{2-{5-[3,6-dihydro-3-methyl-2,6-dioxo-4-(trifluoromethyl)-1(2H)-pyrimidinyl]-1,2-benzisothiazol-3-yl}-p-tolyl}oxy}acetate]	8.0	9.0	9.0	9.0	0.0	0.0	0.0	2.0	5.5	7.5	8.5	9.0	0.0	0.0	0.0	4.0	0.0	0.0	9.0	2.0	herbicidal effect rating, CYPSE ([5]; 0.1250 kg/ha): 2.0; herbicidal effect rating, ORYSAT (rice tolerance) ([6]; 0.0625 kg/ha): 3.5; herbicidal effect rating, ORYSAT (rice tolerance) ([6]; 0.1250 kg/ha): 5.5; herbicidal effect rating, ORYSAT (rice tolerance) ([6]; 0.2500 kg/ha): 7.0

Reference: patent EP0908457B1, “3-(1,2-benzisothiazol- and isoxazol-5-Y1)-2,4(1H,3H)-pyrimidinedione or thione and 3-(1,2-benzisothiazol- and isoxazol-5-y1)-4(3H)-pyrimidinone or thione herbicidal agents” (BASF AKTIENGESELLSCHAFT, priority 1997, dated 1999)
